Measured values reported in the supplement of paper PMC10307832.

Experiments:
Test in all cases: relative viability (nuclei count vs DMSO), 5 days (fraction); higher = more cells survive
AZD1208 + Vorinostat = compound: N[C@@H]1CCCN(c2c(/C=C3\SC(=O)NC3=O)cccc2-c2ccccc2)C1 [AZD1208] + O=C(CCCCCCC(=O)Nc1ccccc1)NO [Vorinostat] (partner 1 µM)
Outline: (§1)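 Lung cancer cell lines were seeded in 1536-well plates and dosed by pin tool the next day, with either a single drug or a fixed anchor-drug dose combined with five library-drug doses (not always all listed) spaced in √10 steps. Five days later, one step fixed the cells and stained their nuclei (final 0.05% Triton X-100, 1% formaldehyde, 1 ug/ml Hoechst), and nuclei were counted on 4× images. Relative viability is the nuclei count in treated wells divided by the count in vehicle wells, and each value is the median of duplicate plates.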

AZD1208 + Bortezomib = compound: N[C@@H]1CCCN(c2c(/C=C3\SC(=O)NC3=O)cccc2-c2ccccc2)C1 [AZD1208] + CC(C)C[C@H](NC(=O)[C@H](Cc1ccccc1)NC(=O)c1cnccn1)B(O)O [Bortezomib] (partner 0.002 µM)
Outline: as §1

XMD14-99 + Palbociclib = compound: CN1CCN(CC1)C2=CC(=C(C=C2)NC3=NC(=C(S3)C(=O)C4=C(C=CC=C4Cl)Cl)N)OC [XMD14-99] + CC(=O)c1c(C)c2cnc(Nc3ccc(N4CCNCC4)cn3)nc2n(C2CCCC2)c1=O [Palbociclib] (partner 0.5 µM)
Outline: as §1

XMD14-99 + Crizotinib = compound: CN1CCN(CC1)C2=CC(=C(C=C2)NC3=NC(=C(S3)C(=O)C4=C(C=CC=C4Cl)Cl)N)OC [XMD14-99] + C[C@@H](Oc1cc(-c2cnn(C3CCNCC3)c2)cnc1N)c1c(Cl)ccc(F)c1Cl [Crizotinib] (partner 1 µM)
Outline: as §1

| Cell Line | relative viability (AZD1208 + Vorinostat; first compound 0.08 µM) | relative viability (AZD1208 + Vorinostat; first compound 0.253 µM) | relative viability (AZD1208 + Vorinostat; first compound 0.8 µM) | relative viability (AZD1208 + Vorinostat; first compound 2.53 µM) | relative viability (AZD1208 + Vorinostat; first compound 8 µM) | relative viability (AZD1208 + Bortezomib; first compound 0.08 µM) | relative viability (AZD1208 + Bortezomib; first compound 0.253 µM) | relative viability (AZD1208 + Bortezomib; first compound 0.8 µM) | relative viability (AZD1208 + Bortezomib; first compound 2.53 µM) | relative viability (AZD1208 + Bortezomib; first compound 8 µM) | relative viability (XMD14-99 + Palbociclib; first compound 0.08 µM) | relative viability (XMD14-99 + Palbociclib; first compound 0.8 µM) | relative viability (XMD14-99 + Palbociclib; first compound 2.53 µM) | relative viability (XMD14-99 + Palbociclib; first compound 8 µM) | relative viability (XMD14-99 + Crizotinib; first compound 0.08 µM) | relative viability (XMD14-99 + Crizotinib; first compound 0.8 µM) | relative viability (XMD14-99 + Crizotinib; first compound 2.53 µM) | relative viability (XMD14-99 + Crizotinib; first compound 8 µM) |
| --- | --- | --- | --- | --- | --- | --- | --- | --- | --- | --- | --- | --- | --- | --- | --- | --- | --- | --- |
| HCC-827 | 0.991 | 0.904 | 0.861 | 0.839 | 0.78 | 1.13 | 1.06 | 0.97 | 1.07 | 1.14 | 0.506 | 0.406 | 0.451 | 0.446 | 0.857 | 0.906 | 0.754 | 0.752 |
| HOP-62 | 0.657 | 0.856 | 0.6 | 0.455 | 0.572 | 0.827 | 1.06 | 0.724 | 0.598 | 0.507 | 0.435 | 0.41 | 0.538 | 0.443 | 1.06 | 0.942 | 0.883 | 0.663 |
| IA-LM | 0.922 | 1.27 | 0.778 | 0.863 | 0.853 | 0.648 | 0.708 | 0.876 | 0.724 | 0.746 |  |  |  |  | 0.742 | 0.561 | 0.435 | 0.331 |
| LC-2-ad | 0.716 | 0.703 | 0.685 | 0.704 | 0.669 | 1.01 | 0.979 | 0.978 | 0.819 | 0.833 | 0.525 | 0.446 | 0.466 | 0.487 | 0.424 | 0.461 | 0.478 | 0.414 |
| LCLC-97TM1 | 0.64 | 0.99 | 0.623 | 0.442 | 0.54 | 0.671 | 0.737 | 0.51 | 0.762 | 0.475 | 0.197 | 0.239 | 0.321 | 0.203 | 0.397 | 0.364 | 0.303 | 0.222 |
| LCLC-103H | 0.772 | 0.858 | 0.789 | 0.613 | 0.697 | 1.01 | 1.12 | 1.02 | 0.949 | 0.85 | 0.487 | 0.491 | 0.421 | 0.481 | 0.986 | 1.02 | 1.01 | 0.989 |
| LK-2 | 0.329 | 0.322 | 0.255 | 0.302 | 0.247 |  |  |  |  |  | 0.572 | 0.804 | 0.655 | 0.611 | 0.232 | 0.193 | 0.2 | 0.223 |
| LOU-NH91 | 0.965 | 0.955 | 0.864 | 0.838 | 0.865 | 0.539 | 0.516 | 0.564 | 0.504 | 0.593 | 0.509 | 0.548 | 0.575 | 0.499 | 0.789 | 0.743 | 0.717 | 0.698 |
| LU99A | 0.471 | 0.618 | 0.481 | 0.467 | 0.332 | 1.07 | 1.2 | 1.27 | 1.12 | 0.904 | 0.382 | 0.415 | 0.396 | 0.328 | 0.612 | 0.489 | 0.542 | 0.468 |
| NCI-H358 | 0.719 | 0.646 | 0.576 | 0.678 | 0.618 |  |  |  |  |  | 0.0998 | 0.147 | 0.132 | 0.124 | 0.661 | 0.733 | 0.576 | 0.302 |
| NCI-H522 | 0.691 | 0.75 | 0.768 | 0.828 | 0.836 |  |  |  |  |  | 0.858 | 1.06 | 0.906 | 1.05 |  |  |  |  |
| NCI-H596 | 0.628 | 0.632 | 0.558 | 0.661 | 0.48 | 0.578 | 0.857 | 0.98 | 1.01 | 0.878 |  |  |  |  | 1.01 | 0.974 | 1.04 | 1.02 |
| NCI-H1299 |  |  |  |  |  | 1.06 | 1.07 | 0.994 | 0.986 | 1.02 |  |  |  |  | 0.946 | 0.898 | 0.998 | 0.769 |
| NCI-H1395 | 0.974 | 0.731 | 0.632 | 0.698 | 0.546 |  |  |  |  |  | 0.58 | 0.678 | 0.688 | 0.602 |  |  |  |  |
| NCI-H1563 |  |  |  |  |  | 0.829 | 0.811 | 0.958 | 0.754 | 0.765 |  |  |  |  | 0.858 | 0.905 | 0.896 | 0.786 |
| NCI-H1648 | 0.371 | 0.491 | 0.298 | 0.36 | 0.89 |  |  |  |  |  | 0.261 | 0.267 | 0.268 | 0.289 |  |  |  |  |
| NCI-H1703 |  |  |  |  |  | 0.277 | 0.159 | 0.246 | 0.253 | 0.305 |  |  |  |  | 0.611 | 0.52 | 0.58 | 0.587 |
| NCI-H1792 |  |  |  |  |  | 0.999 | 0.987 | 0.903 | 0.958 | 0.86 | 0.64 | 0.697 | 0.631 | 0.598 | 1.02 | 0.956 | 1.01 | 0.709 |
| NCI-H1793 | 0.841 | 0.949 | 0.752 | 0.954 | 0.713 |  |  |  |  |  | 0.286 | 0.316 | 0.314 | 0.284 |  |  |  |  |
| NCI-H1944 | 0.596 | 0.665 | 0.618 | 0.468 | 0.379 |  |  |  |  |  | 0.32 | 0.36 | 0.328 | 0.28 | 1.25 | 1.13 | 0.992 | 0.857 |
| NCI-H2170 | 0.864 | 0.923 | 0.76 | 0.779 | 0.5 |  |  |  |  |  | 0.426 | 0.4 | 0.425 | 0.395 | 1.14 | 1.21 | 1.26 | 0.937 |
| NCI-H2342 | 0.831 | 0.702 | 0.604 | 0.799 | 0.597 |  |  |  |  |  | 0.564 | 0.614 | 0.576 | 0.544 |  |  |  |  |
| SK-MES-1 | 1.07 | 1.14 | 1.07 | 1.01 | 1.02 |  |  |  |  |  | 0.345 | 0.343 | 0.372 | 0.223 | 0.991 | 0.946 | 1.01 | 0.639 |
| SW 900 | 0.519 | 0.638 | 0.35 | 0.605 | 0.512 |  |  |  |  |  | 0.57 | 0.567 | 0.514 | 0.359 |  |  |  |  |
